These results are taken from US20190209576A1 (AI Therapeutics, Inc., priority 2014, published 2019).

Common to all, as to format: cell-based
One assay concerns HT-29 cells. In words: Cell viability (CellTiterGlo), single agent, 120 h. The settings on record: Homo sapiens, HT-29, BRAF Mutant (V600E), 5 day assay. The method, then: (§1) For drug studies, HCT116, HT-29, RKO, HCT-15, SW1116, SW480 and SW620 cells were seeded at a density of 750, 8000, 300, 480, 1600, 2000, and 2000 cells per well, respectively, into 96 well plates in a final volume of 50 μL.
(§2) The apilimod used in these studies was apilimod dimesylate.
(§3) All drug dilutions were made up as a 2× stock and 50 μL added to appropriate wells. Cells were treated for 120 h before viability was assessed using CellTiterGlo® (Promega) where the relative luminescence of untreated cells was set to 100% viability and each drug concentration expressed as a percentage of untreated cells. EC50 values were determined using GraphPad Prism (GraphPad Software, Inc). Briefly, raw data was log transformed and then analyzed using nonlinear regression (curve fit) where the data were constrained (bottom=0, top=100).

A further assay concerns HCT-15 cells. In words: Cell viability (CellTiterGlo), single agent, 120 h. To be noted: Homo sapiens, HCT-15, BRAF WT, 5 day assay. The method, then:
as §1, §2, §3

For another assay, the system named is HCT116 cells. Nature of the assay: Cell viability (CellTiterGlo), single agent, 120 h. To be noted: Homo sapiens, HCT-116, 120 h; HCT116, BRAF WT, 5 day assay. The method, then:
as §1, §2, §3

The test system of the next assay is SW1116 cells. In words: Cell viability (CellTiterGlo), single agent, 120 h. To be noted: Homo sapiens, SW 1116, 120 h; SW1116, BRAF WT, 5 day assay. As to the method: as §1, §2, §3
A further assay deals with SW620 cells. In words: Cell viability (CellTiterGlo), single agent, 120 h. The settings on record: Homo sapiens, SW-620, 120 h; SW620, BRAF WT, 5 day assay. The method, then: as §1, §2, §3
The next assay deals with SW480 cells. In words: Cell viability (CellTiterGlo), single agent, 120 h. The settings on record: Homo sapiens, SW480, BRAF WT, 5 day assay. As to the method:
as §1, §2, §3

Another assay relates to RKO cells. Nature of the assay: Cell viability (CellTiterGlo), single agent, 120 h. The settings on record: Homo sapiens, BRAF Mutant (V600E), 5 day assay. As to the method: as §1, §2, §3
The test system of a further assay is colon cancer cell lines. In words: LAM-002 sensitivity (EC90) correlated with SNX10 expression. To be noted: 10 point dose response. The source says:
Expression profiles were obtained from the public databases CCLE (Barretina, Caponigro, Stransky et al. The Cancer Cell Line Encyclopedia enables predictive modelling of anticancer drug sensitivity. Nature. 2012 Mar. 28; 483(7391):603-7) and COSMIC (Forbes SA1, Beare D2, Gunasekaran P2, et al. COSMIC: exploring the world's knowledge of somatic mutations in human cancer. Nucleic Acids Res. 2015 January; 43 (Database issue):D805-11). R statistical package (R Development Core Team (2008). R: A language and environment for statistical computing. R Foundation for Statistical Computing, Vienna, Austria. ISBN 3-900051-07-0) was used for the normalization of expression and the correlation analysis.
To determine LAM-002 sensitivity in colon cancer cell lines, the EC90 was calculated using a 10 point dose response as described above for EC50 determination. […] These findings support SNX10 expression as a predictive biomarker for LAM-002 sensitivity in colon cancer cells.

pEC50: −log10 of the molar value.

For `Cc1cccc(/C=N/Nc2cc(N3CCOCC3)nc(OCCc3ccccn3)n2)c1` [Apilimod], the pEC50 with HT-29 cells is 7.72; with HCT-15 cells it was 7.82; with HCT116 cells it was 8.00; with SW1116 cells it was 7.92; in the assay on SW620 cells, 8.05; with SW480 cells, 7.62. Further, the pEC50 with RKO cells was 7.28. Moreover, the “correlation between SNX10 expression and LAM-002 sensitivity (EC90)” value in the assay on colon cancer cell lines is “colon cancer cells expressing higher levels of SNX10 are the most sensitive to LAM-002”.
